Experimental data published in ChEMBL document CHEMBL2163318, “Phenylalanine derivatives as GPR142 agonists for the treatment of type II diabetes” (Bioorg Med Chem Lett, 2012).
Calls of active or inactive are those of the source. No cut-off for these calls is given here.

Columns and labels:
[1] = system: Mus musculus; assay: Antidiabetic activity in B6D2F1 Harlan mouse assessed as decrease in blood glucose level at 0.30 mg/kg, sc administered 15 mins prior glucose challenge measured 7.5 mins post glucose challenge by glucometer analysis; assay type: functional; parameters: scale not given: the % may be the effect or the level left; conditions: dose 0.3 mg/kg; route subcutaneous
[2] = system: Mus musculus; assay: Antidiabetic activity in B6D2F1 Harlan mouse assessed as increase in serum insulin level at 0.10 mg/kg, sc administered 15 mins prior glucose challenge measured 7.5 mins post glucose challenge by ELISA; assay type: functional, organism-based; parameters: dose 0.1 mg/kg
[3] = Volume of distribution at steady state in rat at 0.89 mg/kg, iv; assay type: ADME, organism-based; parameters: dose 0.89 mg/kg, route intravenous; conditions: in vivo, read-out: Vdss
[4] = system: Mus musculus; assay: Antidiabetic activity in B6D2F1 Harlan mouse assessed as increase in serum insulin level at 0.30 mg/kg, sc administered 15 mins prior glucose challenge measured 7.5 mins post glucose challenge by ELISA; assay type: functional; conditions: dose 0.3 mg/kg; route subcutaneous
[5] = system: Mus musculus; assay: Antidiabetic activity in sc dosed B6D2F1 Harlan mouse assessed as increase in serum insulin level administered 15 mins prior glucose challenge measured 7.5 mins post glucose challenge by ELISA; assay type: functional, organism-based
[6] = target: T1, Probable G-protein coupled receptor 142 (Mus musculus, UniProt Q7TQN9); assay: Agonist activity at mouse GPR142 expressed in HEK293 cells by inositol phosphate accumulation assay; assay type: functional, cell-based
T1 sequence (Q7TQN9 whole entry): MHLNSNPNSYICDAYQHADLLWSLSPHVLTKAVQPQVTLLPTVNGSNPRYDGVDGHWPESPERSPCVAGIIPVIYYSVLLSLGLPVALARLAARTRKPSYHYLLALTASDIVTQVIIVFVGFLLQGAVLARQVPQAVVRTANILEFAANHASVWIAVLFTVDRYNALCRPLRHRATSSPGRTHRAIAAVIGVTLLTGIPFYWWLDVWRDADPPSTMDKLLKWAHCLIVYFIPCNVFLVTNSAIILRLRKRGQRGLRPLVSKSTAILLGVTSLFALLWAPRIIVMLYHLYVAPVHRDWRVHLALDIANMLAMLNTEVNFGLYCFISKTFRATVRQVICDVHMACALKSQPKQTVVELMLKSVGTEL

[7] = target: T2, Probable G-protein coupled receptor 142 (Homo sapiens) (UniProt Q7Z601); assay: Agonist activity at human GPR142 expressed in HEK293 cells assessed as inositol phosphate accumulation at 10 uM after 1 hr by scintillation counting; assay type: functional, cell-based
T2 sequence (whole entry): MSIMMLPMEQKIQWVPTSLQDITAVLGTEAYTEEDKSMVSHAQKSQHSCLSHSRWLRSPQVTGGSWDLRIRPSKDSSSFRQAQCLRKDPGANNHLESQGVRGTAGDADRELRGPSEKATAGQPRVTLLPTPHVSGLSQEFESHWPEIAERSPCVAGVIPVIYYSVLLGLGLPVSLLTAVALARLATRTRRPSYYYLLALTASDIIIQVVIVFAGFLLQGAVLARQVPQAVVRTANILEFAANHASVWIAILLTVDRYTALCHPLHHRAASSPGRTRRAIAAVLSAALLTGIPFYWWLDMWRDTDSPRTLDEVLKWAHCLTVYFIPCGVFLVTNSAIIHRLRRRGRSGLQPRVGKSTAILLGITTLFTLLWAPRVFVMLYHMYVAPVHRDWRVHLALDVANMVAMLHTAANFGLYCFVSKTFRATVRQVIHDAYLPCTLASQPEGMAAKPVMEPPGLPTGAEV

[8] = Metabolic stability of rat microsomes assessed as compound turnover at 1 uM after 30 mins by LC-MS analysis; assay type: ADME, Microsome; conditions: read-out: Drug metabolism
[9] = Half life in rat at 0.89 mg/kg, iv; assay type: ADME, organism-based; parameters: dose 0.89 mg/kg, route intravenous; conditions: in vivo
[10] = system: Mus musculus; assay: Antidiabetic activity in B6D2F1 Harlan mouse assessed as increase in serum insulin level at 5 mg/kg, sc administered 15 mins prior glucose challenge measured 7.5 mins post glucose challenge by ELISA; assay type: functional; conditions: route subcutaneous
[11] = target: T3, Probable G-protein coupled receptor 142 (Homo sapiens, UniProt Q7Z601); assay: Agonist activity at human GPR142 expressed in HEK293 cells assessed as inositol phosphate accumulation after 1 hr by scintillation counting; assay type: functional, cell-based
T3 sequence (Q7Z601 whole entry): T2 sequence (whole entry)

[12] = AUC in rat at 0.89 mg/kg, iv; assay type: ADME, organism-based; parameters: dose 0.89 mg/kg, route intravenous; conditions: plasma
[13] = system: Mus musculus; assay: Antidiabetic activity in B6D2F1 Harlan mouse assessed as decrease in blood glucose level at 1 mg/kg, sc administered 15 mins prior glucose challenge measured 7.5 mins post glucose challenge by glucometer analysis; assay type: functional; parameters: scale not given: the % may be the effect or the level left; conditions: route subcutaneous
[14] = system: Mus musculus; assay: Antidiabetic activity in B6D2F1 Harlan mouse assessed as increase in serum insulin level at 30 mg/kg, sc administered 15 mins prior glucose challenge measured 7.5 mins post glucose challenge by ELISA; assay type: functional; conditions: route subcutaneous
[15] = system: Mus musculus; assay: Antidiabetic activity in B6D2F1 Harlan mouse assessed as decrease in blood glucose level at 5 mg/kg, sc administered 15 mins prior glucose challenge measured 7.5 mins post glucose challenge by glucometer analysis; assay type: functional; parameters: scale not given: the % may be the effect or the level left; conditions: route subcutaneous
[16] = system: Mus musculus; assay: Antidiabetic activity in B6D2F1 Harlan mouse assessed as decrease in blood glucose level at 0.10 mg/kg, sc administered 15 mins prior glucose challenge measured 7.5 mins post glucose challenge by glucometer analysis; assay type: functional, organism-based; parameters: dose 0.1 mg/kg
[17] = Clearance in rat at 0.89 mg/kg, iv; assay type: ADME, organism-based; parameters: dose 0.89 mg/kg, route intravenous; conditions: in vivo
[18] = system: Mus musculus; assay: Antidiabetic activity in B6D2F1 Harlan mouse assessed as increase in serum insulin level at 1 mg/kg, sc administered 15 mins prior glucose challenge measured 7.5 mins post glucose challenge by ELISA; assay type: functional; conditions: route subcutaneous
[19] = system: Mus musculus; assay: Antidiabetic activity in sc dosed B6D2F1 Harlan mouse assessed as decrease in blood glucose level administered 15 mins prior glucose challenge measured 7.5 mins post glucose challenge by glucometer analysis; assay type: functional, organism-based
[20] = AUC in rat at 2 mg/kg, po; assay type: ADME, organism-based; parameters: dose 2 mg/kg, route oral; conditions: plasma
[21] = Metabolic stability of human microsomes assessed as compound turnover at 1 uM after 30 mins by LC-MS analysis; assay type: ADME, Microsome; conditions: read-out: Drug metabolism
[22] = system: Mus musculus; assay: Antidiabetic activity in B6D2F1 Harlan mouse assessed as decrease in blood glucose level at 3 mg/kg, sc administered 15 mins prior glucose challenge measured 7.5 mins post glucose challenge by glucometer analysis; assay type: functional; parameters: scale not given: the % may be the effect or the level left; conditions: route subcutaneous
[23] = system: Mus musculus; assay: Antidiabetic activity in B6D2F1 Harlan mouse assessed as increase in serum insulin level at 3 mg/kg, sc administered 15 mins prior glucose challenge measured 7.5 mins post glucose challenge by ELISA; assay type: functional; conditions: route subcutaneous
[24] = Mean residence time in rat at 2 mg/kg, po; assay type: ADME, organism-based; parameters: dose 2 mg/kg, route oral; conditions: in vivo
[25] = target: T4, Probable G-protein coupled receptor 142 (Mus musculus) (UniProt Q7TQN9); assay: Agonist activity at mouse GPR142 expressed in HEK293 cells by inositol phosphate accumulation assay relative to control; assay type: functional, cell-based
T4 sequence (whole entry): T1 sequence (Q7TQN9 whole entry)

[26] = system: Mus musculus; assay: Antidiabetic activity in B6D2F1 Harlan mouse assessed as decrease in blood glucose level at 30 mg/kg, sc administered 15 mins prior glucose challenge measured 7.5 mins post glucose challenge by glucometer analysis; assay type: functional; parameters: scale not given: the % may be the effect or the level left; conditions: route subcutaneous
[27] = Oral bioavailability in rat at 2 mg/kg; assay type: ADME, organism-based; conditions: in vivo

With `O=C(Nc1cc(-c2ccncc2)c[nH]c1=O)[C@H](Cc1ccccc1)NC1(c2ccccn2)CC1` the Activity [1] was 0%, the Activity [2] was “inactive” and the Vd [3] was 1.1 L/kg. For the same compound, the Activity [4] was 15%, the Activity [5] was “Dose-dependent effect” and the EC50 [5] was 290 nM. For the same compound, the EC50 [6] was 1.8 nM, the Emax [7] was 127% and the metabolised at 0.5 h, 1 µM [8] was 60%. For the same compound, the half-life [9] was 12 min, the Activity [10] was 81% and the EC50 [11] was 54 nM. It also gave an AUC [12] of 177 ng·h/mL, an Activity [13] of 3% and an Activity [14] of 98%. The Activity [15] was 15%, the Activity [16] was “inactive” and the clearance [17] was 83.3 mL/min/kg. For the same compound, the Activity [18] was 41%, the Activity [19] was “Dose-dependent effect” and the EC50 [19] was 850 nM. It also gave an AUC [20] of 77 ng·h/mL, a metabolised at 0.5 h, 1 µM [21] of under 10% and an Activity [22] of 4%. It also gave an Activity [23] of 58%, an MRT [24] of 107 min and an Emax [25] of 81%. It also gave an Activity [26] of 13% and a bioavailability [27] of 20%.
